The values below come from US12612403B2, “Nitrogen-containing heterocyclic derivative inhibitor, and preparation method therefor and use thereof” (SHANGHAI HANSOH BIOMEDICAL CO., LTD., priority 2024, dated 2026).

For orientation: IC50 means the midpoint of a concentration-inhibition curve. A low value points to greater potency.

The target of one assay is T1, PCSK9 protein (Homo sapiens, UniProt Q8NBP7).
T1 construct: purchased Sino biology (Sino Biological) 29698-H08H
Nature of the assay: Binding ability to PCSK9 protein (HTRF). Conditions: PCSK9-His, Alexa Fluor 647 probe compound. How it is done:
1. Experimental objective: To detect the action of compounds to bind PCSK9 protein by an HTRF method.
3. Experimental data processing method: Four-parameter log(inhibitor) vs. response—Variable slope (four parameters) in XLit was used to perform non-linear fitting of the compound concentration and the corresponding inhibition rate, and IC50 was calculated.

In assay [1] the test system is PCSK9 secreted by HepG2 cells. Nature of the assay: Effect on the concentration of PCSK9 secreted by HepG2 cells (ELISA). Format: cell-based. The conditions noted are these: Homo sapiens, 48 hours, PCSK9 in culture medium by ELISA. The method, boiled down:
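HepG2 cells treated with compound for 48 h at 37° C., 5% CO2. Secreted PCSK9 in medium quantified by sandwich ELISA (HRP detection, OD 450 nm) against a 0–10 ng/mL standard curve. Inhibition relative to control; IC50 fitted from concentration–inhibition data.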
On the technique in general: ELISA stands for enzyme-linked immunosorbent assay.

T1 sequence (Q8NBP7 153-692): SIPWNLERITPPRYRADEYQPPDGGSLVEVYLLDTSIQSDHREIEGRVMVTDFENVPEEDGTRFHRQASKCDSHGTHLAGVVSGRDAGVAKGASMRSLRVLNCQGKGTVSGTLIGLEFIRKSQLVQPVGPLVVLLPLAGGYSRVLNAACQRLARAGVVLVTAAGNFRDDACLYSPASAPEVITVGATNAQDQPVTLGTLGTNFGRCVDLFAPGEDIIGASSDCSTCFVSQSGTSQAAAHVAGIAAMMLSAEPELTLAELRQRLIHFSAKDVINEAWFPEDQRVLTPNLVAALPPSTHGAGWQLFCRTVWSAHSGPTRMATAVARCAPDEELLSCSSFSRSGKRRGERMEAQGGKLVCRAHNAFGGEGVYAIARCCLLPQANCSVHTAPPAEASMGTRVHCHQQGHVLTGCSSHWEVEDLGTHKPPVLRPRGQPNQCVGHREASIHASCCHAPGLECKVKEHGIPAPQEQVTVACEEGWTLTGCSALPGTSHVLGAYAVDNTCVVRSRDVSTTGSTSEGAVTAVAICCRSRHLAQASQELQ

Take `O=c1nc(O)ccn1-c1ccc(N[C@H]2CC[C@H](Nc3nc4cc(C(F)(F)F)ccn4n3)C2)nc1` [Example 78, 4-hydroxy-1-(6-(((1S,3S)-3-((7-(trifluoromethyl)-[1,2,4]triazolo[1,5-a]pyridin-2-yl)amino)cyclopentyl)amino)pyridin-3-yl)pyrimidin-2(1H)-one]: the IC50 was found to be 10.1 nM at PCSK9 protein and 33100 nM in assay [1].

Turning to `O=C1c2ncccc2CN1c1cnc(N[C@H]2CC[C@H](Nc3nc4cc(OC(F)F)ccn4n3)C2)c(F)c1` [Example 151], the IC50 on PCSK9 protein turned out to be 8.1 nM; in assay [1] it was 12700 nM.

As for `O=c1nc(O)ccn1-c1cnc(N[C@H]2CC[C@H](Nc3nc4cc(C(F)(F)F)ccn4n3)C2)c(F)c1` [Example 183], the half-maximal inhibitory concentration (IC50) on PCSK9 protein was 8.8 nM; in assay [1], 4800 nM.
